From US5633248A, “Amine compounds, their production and use” (priority 1994, dated 1997)
Structures can show the parent of a compound that is named as a salt.

Key:
Rat GnRH Receptor = target: T1, Rat GnRH Receptor (Rattus norvegicus, UniProt P30969); experiment: ^125 I-leuprolerin binding inhibition, rat anterior pituitary membrane fraction; design: species or system rat (Wistar); conditions: 4° C. for 90 minutes, read-out: GnRH-receptor binding inhibitory activity (IC50, μM) Rat
T1 construct: from tissue; host or cells: anterior pituitary of male Wistar rats (8 weeks old), membrane fraction
T1 sequence (P30969 1-327): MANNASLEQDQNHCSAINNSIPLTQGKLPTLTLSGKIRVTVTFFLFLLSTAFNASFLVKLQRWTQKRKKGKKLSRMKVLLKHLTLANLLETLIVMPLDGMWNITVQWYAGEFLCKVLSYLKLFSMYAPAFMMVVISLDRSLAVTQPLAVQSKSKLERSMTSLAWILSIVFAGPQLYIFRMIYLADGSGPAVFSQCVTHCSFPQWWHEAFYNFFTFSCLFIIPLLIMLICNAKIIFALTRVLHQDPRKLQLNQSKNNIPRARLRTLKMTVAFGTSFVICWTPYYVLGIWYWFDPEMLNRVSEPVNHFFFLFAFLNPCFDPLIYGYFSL
Procedure: A tube was filled with 10 μl of an aqueous solution of leuprolerin (3×10^4 M) and lactoperoxidase (0.01 mg/ml) followed by addition of 10 μl of Na^125 I solution (37 MBq). After stirring, 10 μl of 0.001% H2 O2 was added and the reaction was conducted at room temperature for 20 minutes. The reaction was stopped by adding 700 μl of 0.05% TFA and the reaction mixture was subjected to reversed-phase HPLC under the conditions set forth below. ^125 I-leuprolerin was eluted with a retention time of 26-27 minutes. Forty rats (8 weeks old, male) of Wistar strain were decapitated under no anesthesia and the anterior pituitary isolated from each animal was washed with an ice-cooled homogenate buffer (25 mM Tris (tris(hydroxylmethyl)aminomethane)-HCl, 0.3M sucrose, 1 mM EGTA (ethylene-bis(oxyethylenenitrilo)tetraacetic acid), 0.25 mM PMSF (phenylmethylsulfonyl fluoride), 10 U/ml aprotinin, 1 μg/ml pepstatin, 20 μg/ml leupeptin, 100 μg/ml phosphoramidon, 0.03% sodium azide; pH 7.5). The anterior pituitary was suspended in 2 ml of the same homogenate buffer as above and homogenized using a Polytron homogenizer. The homogenate thus prepared was centrifuged at 700 xg for 15 minutes and the supernatant was transferred to an ultracentrifuge cuvette and further centrifuged at 100,000 xg for 1 hour to provide a membrane fraction pellet. This pellet was suspended in 2 ml of an assay buffer (25 mM Tris-HCl, 1 mM ethylenediaminetetraacetic acid (EDTA), 0.1% bovine serum albumin (BSA), 0.25 mM PMSF, 1 μg/ml pepstatin, 20 μg/ml leupeptin, 100 μg/ml phosphoramidon, 0.03% sodium azide; pH 7.5) and centrifuged at 100,000 xg for 1 hour. The membrane fraction recovered as a pellet was resuspended in 10 ml of the same assay buffer as above, distributed into vials, preserved at -80° C., and reconstituted before use. The rat and human membrane fractions prepared under (B) and (D) were respectively diluted with the assay buffer to make 200 μg/ml each and 188 μl aliquots of each dilution were distributed into tubes. The bovine membrane fraction prepared under (C) was diluted with the assay buffer to make 750 μg/ml and 188 μl aliquots of the dilution were distributed into tubes. When the rat anterior pituitary membrane fraction was used, 2 μl of 0.1 mM compound/60% dimethyl sulfoxide (DMSO) and 10 μl of 38 nM ^125 I-leuprolerin were concurrently added. […] For determination of maximum binding, a reaction mixture was prepared by adding 2 μl of 60% DMSO and 10 μl of 38 nM ^125 I-leuprolerin. For determination of non-specific binding, a reaction mixture was prepared using 2 μl of 100 μM leuprolerin/60% DMSO and 10 μl of […] ^125 I-leuprolerin. When the rat and bovine anterior pituitary membrane fractions were used, each reaction was carried out at 4° C. for 90 minutes. On the other hand, when the human GnRH receptor-expressed CHO cell membrane fraction was used, the reaction was conducted at 25° C. for 60 minutes. After completion of the reaction, the reaction mixture was suction-filtered through a polyethyleneimine-treated Whatman glass filter (GF-F) [trademark;whatman]. After filtration, the radioactivity of the residual ^125 I-leuprolerin on the filter was measured using a γ-counter. The computation formula of (TB-SB)/(TB-NSB)×100 (SB=radioactivity bound in the presence of the test compound, TB=maximum amount of radioactivity bound, NSB=amount of radioactivity nonspecifically bound) was calculated to find the binding inhibition rate for the test compound. Moreover, the inhibition rate was determined by varying the concentration of each test compound and the concentration of the compound causing 50% inhibition of binding (IC50 value) was calculated by Hill plot.

Human GnRH receptor = target: T2, Human GnRH receptor (Homo sapiens, UniProt P30968); experiment: ^125 I-leuprolerin binding inhibition, human GnRH receptor-expressed CHO cell membrane fraction; conditions: 25° C. for 60 minutes, read-out: GnRH-receptor binding inhibitory activity (IC50, μM) Man
T2 construct: expressed in transfected cells; host or cells: CHO (Chinese hamster ovary) cells, membrane fraction
T2 sequence (P30968 1-328): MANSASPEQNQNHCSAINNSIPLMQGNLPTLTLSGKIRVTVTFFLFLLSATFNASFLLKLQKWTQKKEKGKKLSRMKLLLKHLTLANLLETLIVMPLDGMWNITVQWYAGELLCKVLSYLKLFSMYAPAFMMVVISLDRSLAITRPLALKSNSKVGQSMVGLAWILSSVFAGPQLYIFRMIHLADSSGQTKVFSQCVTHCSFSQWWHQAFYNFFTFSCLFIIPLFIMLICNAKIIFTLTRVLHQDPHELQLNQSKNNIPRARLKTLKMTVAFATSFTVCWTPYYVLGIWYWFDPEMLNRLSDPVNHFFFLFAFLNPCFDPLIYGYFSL
Procedure: A tube was filled with 10 μl of an aqueous solution of leuprolerin (3×10^4 M) and lactoperoxidase (0.01 mg/ml) followed by addition of 10 μl of Na^125 I solution (37 MBq). After stirring, 10 μl of 0.001% H2 O2 was added and the reaction was conducted at room temperature for 20 minutes. The reaction was stopped by adding 700 μl of 0.05% TFA and the reaction mixture was subjected to reversed-phase HPLC under the conditions set forth below. ^125 I-leuprolerin was eluted with a retention time of 26-27 minutes. […] To the sediment was added 10 ml of a cell homogenate buffer (10 mM NaHCO3, 5 mM EDTA, pH 7.5) and the mixture was homogenized using a Polytron homogenizer. The homogenate was centrifuged at 400 xg for 15 minutes and the supernatant was transferred to an ultracentrifuge cuvette and centrifuged at 100,000 xg for 1 hour to prepare a membrane fraction pellet. This pellet was suspended in 2 ml of the assay buffer and further centrifuged at 100,000 xg for 1 hour. The membrane fraction recovered as a pellet was resuspended in 20 ml of the assay buffer, distributed into vials, preserved at -80° C., and reconstituted before use. The rat and human membrane fractions prepared under (B) and (D) were respectively diluted with the assay buffer to make 200 μg/ml each and 188 μl aliquots of each dilution were distributed into tubes. The bovine membrane fraction prepared under (C) was diluted with the assay buffer to make 750 μg/ml and 188 μl aliquots of the dilution were distributed into tubes. When the rat anterior pituitary membrane fraction was used, 2 μl of 0.1 mM compound/60% dimethyl sulfoxide (DMSO) and 10 μl of 38 nM ^125 I-leuprolerin were concurrently added. […] For determination of maximum binding, a reaction mixture was prepared by adding 2 μl of 60% DMSO and 10 μl of 38 nM ^125 I-leuprolerin. For determination of non-specific binding, a reaction mixture was prepared using 2 μl of 100 μM leuprolerin/60% DMSO and 10 μl of […] ^125 I-leuprolerin. When the rat and bovine anterior pituitary membrane fractions were used, each reaction was carried out at 4° C. for 90 minutes. On the other hand, when the human GnRH receptor-expressed CHO cell membrane fraction was used, the reaction was conducted at 25° C. for 60 minutes. After completion of the reaction, the reaction mixture was suction-filtered through a polyethyleneimine-treated Whatman glass filter (GF-F) [trademark;whatman]. After filtration, the radioactivity of the residual ^125 I-leuprolerin on the filter was measured using a γ-counter. The computation formula of (TB-SB)/(TB-NSB)×100 (SB=radioactivity bound in the presence of the test compound, TB=maximum amount of radioactivity bound, NSB=amount of radioactivity nonspecifically bound) was calculated to find the binding inhibition rate for the test compound. Moreover, the inhibition rate was determined by varying the concentration of each test compound and the concentration of the compound causing 50% inhibition of binding (IC50 value) was calculated by Hill plot.

Work on `COc1cc2c(cc1OC)CC1(CCCCN1CCCC(CCCNC(=O)Cc1ccsc1)(c1ccccc1)c1ccccc1)CC2` (stereo not shown) [II-63, 3,4-Dihydro-6,7-dimethoxy-1'-{4,4-diphenyl-7-[(3-thienylacetyl)amino]heptyl}spiro[naphthalene-2(1H),2'-piperidine] hydrochloride] yielded an IC50 (Rat GnRH Receptor) of 0.001 µM and an IC50 (Human GnRH receptor) of 0.4 µM.
In the case of `COc1cc2c(cc1OC)CC1(CCCCN1CCCC(CCCNC(=O)CCc1ccccc1)(c1ccccc1)c1ccccc1)CC2` (stereo not shown) [II-64, 3,4-Dihydro-6,7-dimethoxy-1'-{4,4-diphenyl-7-[(3-phenylpropionyl)amino]heptyl}spiro[naphthalene-2(1H),2'-piperidine] hydrochloride], the IC50 (Rat GnRH Receptor) is reported as 0.009 µM and the IC50 (Human GnRH receptor) is reported as 0.2 µM.
In the case of `COc1ccc(CCC(=O)NCCCC(CCCN2CCCCC23CCc2cc(OC)c(OC)cc2C3)(c2ccccc2)c2ccccc2)cc1` (stereo not shown) [II-65, 3,4-Dihydro-6,7-dimethoxy-1'-{4,4-diphenyl-7-{[3-(4-methoxyphenyl)propionyl]amino}heptyl}spiro[naphthalene-2(1H),2'-piperidine] hydrochloride], the IC50 (Rat GnRH Receptor) is reported as 0.001 µM and the IC50 (Human GnRH receptor) is reported as 0.02 µM.
`COc1cc2c(cc1OC)CC1(CCCCN1CCCC(CCCNC(=O)Cc1cccc3ccccc13)(c1ccccc1)c1ccccc1)CC2` (stereo not shown) [II-66, 3,4-Dihydro-6,7-dimethoxy-1'-{4,4-diphenyl-7-[(1-naphthylacetyl)amino]heptyl}spiro[naphthalene-2(1H),2'-piperidine] hydrochloride] showed an IC50 (Rat GnRH Receptor) of 0.003 µM and an IC50 (Human GnRH receptor) of 0.3 µM.
Molecule `COc1ccc(CC(=O)NCCCC(CCCN2CCCCC23CCc2cc(OC)c(OC)cc2C3)(c2ccc(F)cc2)c2ccc(F)cc2)cc1` (stereo not shown) [II-68, 3,4-Dihydro-6,7-dimethoxy-1'-{4,4-bis(4-fluorophenyl)-7-[(4-methoxyphenylacetyl)amino]heptyl}spiro[naphthalene-2(1H),2'-piperidine] hydrochloride] has an IC50 (Rat GnRH Receptor) of 0.009 µM and an IC50 (Human GnRH receptor) of 0.4 µM.
